The text below walks through data of PMC6545003, “Cytotoxic and cell cycle arrest properties of two steroidal alkaloids isolated from Holarrhena floribunda (G. Don) T. Durand & Schinz leaves” (BMC Complementary and Alternative Medicine, 2019).

The subject of series [1] is HeLa cells. Briefly: MTT reduction assay. The note with it: for Selectivity index: HeLa versus non-cancerous KMST-6; for IC50: HeLa. It counts as cell-based, human. A general note: Tetrazolium assays rely on reduction of a dye to a coloured formazan, in cell work by metabolically active cells.
Description: (§3) Viable cells were seeded at a density of 5 x10^4 cells/ml (100 μl/well) in 96-well plates and incubated in a humidified atmosphere of 5% CO2 and 95% air at 37°C for 24 h to form a cell monolayer. After 24 h, the cell culture medium was aspirated and 100 μl fresh medium containing varying concentrations of test compounds in log10 doses were added to the cells and the 96-well plates incubated for a further 24 h [16, 17].
(§4) After the 24 h treatments, 20 μl of 5 mg/ml MTT (prepared in PBS) was added to each well and the 96-well plates incubated for 3 h at 37°C in a 5% CO2 atmosphere. The supernatant was aspirated and 150 μl of isopropanol added to each well after which the plate was gently shaken for 15 min to solubilize the formazan crystals and the absorbance was measured at 560 nm using a Glomax Multi Detection System (Promega, USA). The percentage inhibition of cell proliferation was calculated using the formula below and IC50 values computed by non-linear regression analysis of log dose-response sigmoidal curves using GraphPad Prism version 6.05 for Windows (GraphPad Software, La Jolla California USA, www.graphpad.com). %Inhibition of Proliferation=100‐TestOD/UntreatedODx100%
Series [2] relates to MCF-7 cells. Briefly: MTT reduction assay. It counts as cell-based, human. As to conditions: for Selectivity index: MCF-7 versus non-cancerous KMST-6.
Description: as §3, §4
Series [3] relates to HT-29 cells. Nature of the series: MTT reduction assay. It counts as cell-based, human. The note with it: for Selectivity index: HT-29 versus non-cancerous KMST-6.
Description: as §3, §4
Series [4] relates to KMST-6 non-cancerous fibroblast cells. Briefly: MTT reduction assay. It is filed as cell-based, human.
Description: as §3, §4
The test system of series [5] is HeLa cells. Nature of the series: Cell cycle analysis, PI flow cytometry. It is filed as cell-based, human. The note with it: IC50 concentration, 24 h. The protocol:
(§1) Cells were seeded at a density of 2 × 10^5 cells/well in 6-well plates and incubated for 24 h at 37 °C in a CO2 incubator to form a monolayer. The cells were treated for 12 and 24 h with the isolated compounds at concentrations equivalent to the IC50 concentrations (as determined by the MTT reduction assay). After treatment, the cells were detached with trypsin, washed in PBS and the cell pellet was resuspended in 1 ml of 1% paraformaldehyde and placed on ice for 30 min. Ethanol (70%, v/v) was slowly added to the cells while the sample was vortexed to reduce cell clumping. The cells were stored at − 20 °C for 48 h, after which the cells were recovered by centrifugation at 4000 rpm for 10 min. The cell pellets were washed twice in PBS and then resuspended in 1 ml PBS containing 100 μg/ml RNase and 40 μg/ml propidium iodide. Cell cycle phase distribution was determined using a FACS Calibur Flow Cytometer (BD Biosciences Franklin Lakes, NJ, USA). The DNA content of 50,000 events was determined by ModFit software (Verity Software House, Topsham, ME), which provided histograms to evaluate the cell cycle distribution.
On the technique in general: A flow cytometer gives signals particle by particle.

Series [6] has as its system HT-29 cells. Nature of the series: Cell cycle analysis, PI flow cytometry. It counts as cell-based, human. As to conditions: HT-29, IC50 concentration, 12 and 24 h. The protocol:
as §1

Series [7] has as its system MCF-7 cells. Briefly: Cell cycle analysis, PI flow cytometry. It counts as cell-based, human. The note with it: MCF-7, IC50 concentration. The protocol:
as §1

The test system of series [8] is HeLa cells. Briefly: BrdU incorporation assay (chemiluminescent ELISA). It counts as cell-based, human. As to conditions: IC50 concentration. The protocol: (§2) Cells were seeded at a density of 5 × 10^4 cells/well in black-walled 96-well microtiter plates and incubated for 24 h at 37 °C in a CO2 incubator to form a monolayer. The cells were treated for 12, 24 and 48 h with the isolated compounds at concentrations equivalent to the IC50 concentrations (as determined by the MTT reduction assay). Cell proliferation was determined using the ELISA-BrdU (5-bromo-2′-deoxyuridine) chemiluminescence assay kit (Roche, Germany), according to the manufacturer’s instruction, and expressed as the percentage DNA synthesis relative to the untreated control.
(In general: Incorporation of labelled thymidine or its analogues reports DNA synthesis.)

For series [9], the system named is HT-29 cells. Briefly: BrdU incorporation assay (chemiluminescent ELISA). The note with it: HT-29, IC50 concentration. It is filed as cell-based, human. The protocol: as §2
Series [10] concerns MCF-7 cells. Briefly: BrdU incorporation assay (chemiluminescent ELISA). It is filed as cell-based, human. As to conditions: MCF-7, IC50 concentration. The protocol:
as §2

Details of series [11]: method as in doi:10.1135/cccc20041506. As to conditions: at a neuro-active concentration; cited from earlier work.
The mark [12] stands for this setting: Homo sapiens, MTT, 24 h treatment, read-out: IC50.
Where [13] appears, read: Homo sapiens, MCF7, MCF-7, MTT, 24 h treatment, read-out: IC50.
[14] abbreviates: Homo sapiens, HT-29, MTT, 24 h treatment, read-out: IC50.
The mark [15] stands for this setting: Homo sapiens, Fibroblast, KMST-6, MTT, 24 h treatment, read-out: IC50.

Structures are written as SMILES. Where two headings read alike, the source gives them in different places.

The term IC50 denotes the concentration at which inhibition is half-maximal. Consider `N.N.[Cl][Pt][Cl]` [Cisplatin], for which the Selectivity index worked out at 2.11 in the series with HeLa cells [1], 0.58 with MCF-7 cells [2] and 0.87 in the series on HT-29 cells [3]. Besides, the concentration for half-maximal inhibition (IC50) in the series with HeLa cells [1] (MTT, 24 h treatment, read-out: IC50) was determined as 2.91 µM; in the series with MCF-7 cells [2] (MCF-7, MTT, 24 h treatment, read-out: IC50) it was 10.6 µM; in the series on HT-29 cells [3] (HT-29, MTT, 24 h treatment, read-out: IC50), 7.07 µM; in series [4] (KMST-6, MTT, 24 h treatment, read-out: IC50), 6.14 µM.

Turning to `CC(=O)[C@H]1CC[C@H]2[C@@H]3CC=C4C[C@H](N)CC[C@]4(C)[C@H]3CC[C@]12C` [Compound 1, holamine], the Selectivity index in the series on HeLa cells [1] is reported as 2.00; in the series with HT-29 cells [3], 3.82; in the series with HT-29 cells [3] (listed as C1) it was 3.31. Besides, the IC50 amounted to 51.4 µM with HeLa cells [1] (setting [12]), 42.8 µM in the series with MCF-7 cells [2] (setting [13]), 31.1 µM in the series on HT-29 cells [3] (setting [14]) and 103 µM in series [4] (setting [15]). Moreover, the “Cell population in G2/M-phase” value is “significant decrease” in the series with HeLa cells [5], “significant increase” in the series on MCF-7 cells [7] (12 h) and “not significant” with MCF-7 cells [7] (24 h). Moreover, the “Cell population in G2/M phase” value with HT-29 cells [6] was “significant increase”. Further, the “Change in DNA synthesis between 24 and 48 h” value in the series with HeLa cells [8] is “significant reduction”. The “Change in DNA synthesis between 12 and 24 h” value with HT-29 cells [9] and in the series on MCF-7 cells [10] was “significant reduction” throughout.

As for `CC(=O)[C@H]1CC[C@H]2[C@@H]3CC[C@H]4C[C@H](N)CC[C@]4(C)[C@H]3CC[C@]12C` [Compound 2, funtumine], the IC50 in the series with HeLa cells [1] (Homo sapiens, 24 h) came to 46.2 µM; with MCF-7 cells [2] (Homo sapiens, MCF7, 24 h) it was 52.7 µM; in the series with HT-29 cells [3] (Homo sapiens, HT-29, 24 h) it was 22.4 µM; in series [4] (Homo sapiens, Fibroblast, 24 h), 85.5 µM. For the same molecule, the “Cell population in G2/M phase” value with HT-29 cells [6] is “significant increase”. The “Cell population in G2/M-phase” value in the series with MCF-7 cells [7] (12 h) and in the series with MCF-7 cells [7] (24 h) was “significant increase” each time. The Selectivity index is listed as 1.85 in the series with MCF-7 cells [2], 3.31 with HT-29 cells [3] and 3.82 in the series with HT-29 cells [3] (listed as C2). In addition, in series [11], the Cytotoxicity result is on record as “no cytotoxicity”. For the same molecule, the entries for the “Change in DNA synthesis between 12 and 24 h” value in the series on HeLa cells [8] and in the series on HT-29 cells [9] were “significant reductions” and “significant reduction”, respectively. Also, the figures for the “Change in DNA synthesis between 24 and 48 h” value in the series with HT-29 cells [9] and in the series with MCF-7 cells [10] were “significant reduction” and “significantly (P < 0.05) reduced”, respectively.

As for `COc1cccc2c1C(=O)c1c(O)c3c(c(O)c1C2=O)C[C@@](O)(C(=O)CO)C[C@@H]3O[C@H]1C[C@H](N)[C@H](O)[C@H](C)O1` [Dox, Doxorubicin], the Selectivity index stood at 1.31 in the series on HeLa cells [1], 0.57 with MCF-7 cells [2] and 0.27 with HT-29 cells [3]. Further, the half-maximal inhibitory concentration (IC50) in the series with HeLa cells [1] (setting [12]) is 3.57 µM; with MCF-7 cells [2] (setting [13]), 8.2 µM; with HT-29 cells [3] (setting [14]) it was 17.4 µM; in series [4] (setting [15]) it was 4.68 µM.
